Results from PMC10900488, “Synthesis and Evaluation of (Bis)benzyltetrahydroisoquinoline Alkaloids as Antiparasitic Agents” (JACS Au, 2024).

Key:
[1] = system: L. mexicana promastigotes; assay: Light microscopy of cell morphology; assay type: cell-based, Leishmania (L.) mexicana
Experimental: Preliminary investigations into the mechanism of action for compounds (S)-9a, (S)-9b and (S,R)-11 were carried out using L. mexicana promastigotes. Light microscopy-based techniques were employed to further explore compound activity in a different, related Leishmania species. […] A solvent-only control using 0.1% (v/v) DMSO led to no significant effects. Cell cultures were examined by light microscopy to identify any morphological changes resulting from compound treatment (Figure 2B). […] Cells treated with the BI and BBI compounds develop a changed morphology with a spherical cell body or shortened flagellum. This effect is observed in 25% of the population for compound (S)-9a, to a greater extent (66%) for (S)-9b, and 27% for compound (S,R)-11. An abnormal number and position of Ks and Ns were often observed, with Ks and Ns sometimes less well-defined by Hoechst 33342 staining. […]
If the radar plot falls completely within the pink area, the compounds is predicted to have good oral […]
Figure S1. Bioavailability radars for hit compounds as generated by the SwissADME Webtool.
General Experimental Considerations
MTT was obtained from Molecular Probes® (Invitrogen™). Foetal calf serum (FCS, 10500064), M199 medium (M199 containing Earle’s salts and L-glutamine, 31100019), were purchased from Gibco. Hemin (H9039) was obtained from Sigma Aldrich. The FilterMax F5 Multi-Mode Microplate Reader spectrofluorimeter (Molecular Devices) was used to obtain all absorbance readings.
Microscopy was performed with a widefield fluorescence microscope (Axio Observer A1, Zeiss) using a 63× NA 1.4 Plan-Apochromat oil immersion objective lens and a 120V metal halide fluorescence light source (Zeiss, HXP 120V) with a Hamamatsu ORCA-Flash4.0 camera. Standard fluorescence microscopy was performed with a Green (ThorLabs, MDF-GFP2) and/or Blue (Zeiss, 49) filter cube. […]

[2] = system: L. infantum promastigotes; assay: Antipromastigote assay (L. infantum), MTT colorimetric; assay type: cell-based, Leishmania (L.) infantum; settings: Leishmania infantum; ± SD; MTT, 48 h; read-out: L. infantum IC50 promastigotes
Experimental: Table 1 depicts the antileishmanial (L. infantum) activity evaluation performed against both the amastigote form (evaluated microscopically using an ex vivo intracellular model of mice macrophages) and the promastigote one (using an MTT colorimetric method).[32],[33] The cytotoxicity was evaluated against NCTC cells using an MTT colorimetric method and the selectivity index was determined using the ratio between the CC50 values (NCTC cells) and the IC50 values (amastigotes).[32] […] With respect to the substituents on the C ring, larger, hydrophobic groups conferred greater bioactivity (e.g., 9b–d), whereas small, hydrophilic groups such as a hydroxyl group afford modest to poor bioactivity.
Leishmania (L.) infantum (MHOM/BR/1972/LD) amastigotes were obtained from golden hamsters (Mesocricetus auratus) spleens following 60-70 days of infection via differential centrifugation. The Stauber method was used to determine the number of parasites.12 […]
Biological activity assays
Antipromastigote Assay (L. infantum)
L. infantum promastigotes (1 × 10^6 cells/well) were added to a 96-well plates. Treatment of the cells with selected compounds (serially diluted 0.14 to 200 μM) was performed in M199 medium supplemented with 0.25% hemin and 10% fetal bovine serum for 48 h at 24 °C. The MTT colorimetric assay was used to determine the activity (IC50) of the compounds. Miltefosine was used as a standard drug and untreated promastigotes were used as a negative control. The half inhibitory concentration (IC50) was determined from a sigmoidal regression of the concentration-response curves generated in GraphPadPrism7. […]

T. cruzi amastigotes = assay: Antiamastigote assay (T. cruzi), ex vivo intracellular model using mice macrophages, microscopy; assay type: cell-based, Trypanosoma (T.) cruzi; settings: Trypanosoma cruzi, Peritoneal macrophage, 48 h, ± SD, read-out: T. cruzi IC50 amastigotes
Experimental: T. cruzi also assumes several cell morphologies during its lifecycle, which differ between the insect vector and mammalian host. In the latter environment, the parasite transitions between extracellular bloodstream trypomastigotes and intracellular amastigotes; both forms are clinically relevant, particularly during the acute stage of Chagas disease.[34] In this work, antitrypanosomal activity was tested against both the amastigote form (evaluated microscopically using an ex vivo intracellular model using mice macrophages) and the trypomastigote form (using the resazurin in vitro assay).[33],[35] […] In silico predictions of pharmacokinetic profiles were carried out using the SwissADME webtool (see the Supporting Information for details).[36] […]
[…] Cultivation was performed in 2% fetal calf serum supplemented RPMI-1640 medium.
The trypomastigotes were maintained in a humidified incubator at 37 °C and with 5% CO2. […]
Peritoneal macrophages were obtained via washing the peritoneal cavity of BALB/c mice with 10% foetal calf serum supplemented RPMI-1640 medium (pH 7.2). The macrophages were maintained in a humidified incubator at 37 °C and with 5% CO2.
Biological activity assays […]
Peritoneal macrophages (1 × 10^5 cells/well) obtained from the peritoneal cavity of BALB/C mice were added to 16-well chambers (NUNC, Thermo Fischer Scientific). The cells were infected with trypomastigotes (10:1 parasites/macrophage) for 2 h. Then treatment of the infected macrophages with selected compounds (serially diluted 1.2 to 100 μM) was performed in a humidified incubator for 48 h at 37 °C and with 5% CO2. The treated cells were fixed on slides using methanol, stained with Giemsa and observed under a light microscope (EVOS M5000, Thermo, USA) with digital image equipment. The infection index was used in order to determine the half inhibitory concentration (IC50) (no. infected macrophages × no. amastigotes / total no.

In the case of `COc1cc2c(cc1OC)[C@H](Cc1ccc(OC)c(OCc3ccccc3)c1)N(C)CC2` [(S)-9b], the “Abnormal morphology (spherical cell body or shortened flagellum), share of population” value (shortened to “Abnormal morphology”) ([1]; 50 μM) is reported as 66%, the IC50 [2] is reported as 8.6 ± 0.8 µM and the IC50 (T. cruzi amastigotes) is reported as 12.2 ± 0.5 µM.
For `COc1cc2c(cc1OC)[C@@H](Cc1ccc(Oc3cc(C[C@H]4c5cc(OC)c(OC)cc5CCN4C)ccc3OC)cc1)N(C)CC2` [(S,R)-11, (−)-O,O′-dimethylgrisabine], the “Abnormal morphology” value ([1]; 5 μM) was 27%, the IC50 [2] was 0.8 ± 0.01 µM and the IC50 (T. cruzi amastigotes) was 2.2 ± 0.7 µM.
`COc1cc2c(cc1OC)[C@H](Cc1ccc(Br)cc1)N(C)CC2` [(S)-9a] was tested, and the “Abnormal morphology” value ([1]; 50 μM) was 25%, the IC50 [2] was 18.4 ± 2.1 µM and the IC50 (T. cruzi amastigotes) was 25.1 ± 3.1 µM.
